In paper PMC8188729 (Nature, 2020):
Several values for one entry are separate records, joined by “and”; a condition that tells them apart may be missing. Equal entries are not always repeated. Where two headings read alike, the source gives them in different places.

Tests used:
[1] = tested on: HIV-1BaL; test: p24 endpoint antiviral assay in macrophage cultures; assay type: cell-based; conditions: Human immunodeficiency virus 1, Macrophage, read-out: mean EC50
[2] = tested on: single-cycle reporter HIV-1; test: microbe, parasite or virus in culture; assay type: cell-based
[3] = target: HIV-1 PR (Human immunodeficiency virus type 1 group M subtype B, UniProt P04585); test: HIV-1 PR cleavage activity in vitro; assay type: biochemical
[4] = Cytotoxicity assay; assay type: cell-based; conditions: human, MT-4 cells
[5] = Cytotoxicity assay; assay type: cell-based; conditions: human, Huh-7 cells
[6] = Cytotoxicity assay; assay type: cell-based; conditions: human, Gal-HepG2 cells
[7] = Cytotoxicity assay; assay type: cell-based; conditions: human, MRC-5 cells
[8] = Cytotoxicity assay; assay type: cell-based; conditions: human, primary human hepatocytes
[9] = Cytotoxicity assay; assay type: cell-based, human; conditions: human, stimulated PBMCs
[10] = tested on: Stimulated PBMCs; test: Cytotoxicity assay; assay type: cell-based, human; conditions: PBMCs
[11] = tested on: HIV-1 recombinant strains resistant to NRTIs, NNRTIs, INSTIs, PIs or MIs; assay type: cell-based
[12] = target: CA monomer (Human immunodeficiency virus type 1 group M subtype B, UniProt P03348); test: biochemical; assay type: binding
[13] = tested on: HIV-1 CA mutants; assay type: cell-based; conditions: mutant/WT EC50 ratio
[14] = tested on: primary human hepatocytes; test: Metabolic stability of [3H]GS-6207 in primary human hepatocytes; assay type: in vitro ADME; conditions: [3H]GS-6207, primary human hepatocytes
[15] = tested on: HIV-1; assay type: in vivo; conditions: for Maximum HIV-1 RNA change through day 9: individual participants
[16] = Study GS-US-200-4072: safety in participants living with HIV; assay type: in vivo, human; conditions: for Any AE / Arthralgia / Constipation / Haemorrhoids / Headache / Injection site erythema / Injection site induration / Injection site nodule / Injection site pain / Nasopharyngitis / Nausea / Oropharyngeal pain / Rash / Serious AE: Atrial fibrillation / Syphilis / Upper respiratory tract infection / Vomiting: PLWH
[17] = tested on: HIV-1 capsid; test: Study GS-US-200-4072: HIV-1 resistance analyses; conditions: in vivo
[18] = tested on: HIV-1 CA protein; assay type: biochemical; conditions: 20 μM CA, 2 M NaCl
[19] = tested on: HIV-1 DNA; test: Quantitation of HIV-1 DNA forms in infected MT-2 cells by PCR; conditions: GS-6207 at 1.25 nM
[20] = tested on: HIV-2 isolates; test: 7-day RT endpoint antiviral assay in human PBMCs, HIV-2 isolates; conditions: Human immunodeficiency virus 2, PBMC, read-out: mean EC50
[21] = tested on: HIV-1IIIb; test: In vitro two-drug combination study in HIV-1IIIB-infected MT-2 cells
[22] = GS-6207 20 mg or Placebo (n = 8)
[23] = GS-6207 50 mg or Placebo (n = 8)

## CC(C)(C#Cc1ccc(-c2ccc(Cl)c3c(NS(C)(=O)=O)nn(CC(F)(F)F)c23)c([C@H](Cc2cc(F)cc(F)c2)NC(=O)Cn2nc(C(F)(F)F)c3c2C(F)(F)[C@@H]2C[C@H]32)n1)S(C)(=O)=O [GS-6207]
[1]
  EC50: 0.056 nM
[2]; Human immunodeficiency virus 1
  EC50: 0.025 nM
[2]; Human immunodeficiency virus 1, HEK-293T
  EC50: 0.439 nM
[2]; Human immunodeficiency virus 1, MT2
  EC50: 0.023 nM
[3]
  IC50: > 50000 nM
[4]
  CC50: 24700 ± 18300 nM
[5]
  CC50: > 44400 nM
[6]
  CC50: > 44400 nM
[7]
  CC50: > 44400 nM
[8]
  CC50: > 50000 nM
[9]
  CC50: > 50000 nM
[10]
  therapeutic index (CC50/EC50): > 1,000,000
[11]; HIV-1 mutant 6TAMs (NRTI)
  Fold resistance: 0.2 ± 0.1 (3)
[11]; HIV-1 mutant E92Q+N155H (INSTI)
  Fold resistance: 0.8 ± 0.4 (3)
[11]; HIV-1 mutant E138K+Q148K (INSTI)
  Fold resistance: 0.6 ± 0.3 (3)
[11]; HIV-1 mutant G48V+V82A+L90M (PI)
  Fold resistance: 0.5 ± 0.2 (3)
[11]; HIV-1 mutant G48V+V82S (PI)
  Fold resistance: 0.4 ± 0.2 (3)
[11]; HIV-1 mutant G140S+Q148R (INSTI)
  Fold resistance: 0.8 ± 0.3 (3)
[11]; HIV-1 mutant I84V+L90M (PI)
  Fold resistance: 0.3 ± 0.1 (3)
[11]; HIV-1 mutant K65R (NRTI)
  Fold resistance: 0.6 ± 0.2 (3)
[11]; HIV-1 mutant K103N+Y181C (NNRTI)
  Fold resistance: 0.6 ± 0.2 (3)
[11]; HIV-1 mutant L100I+K103N (NNRTI)
  Fold resistance: 0.5 ± 0.2 (3)
[11]; HIV-1 mutant M46I+I50V (PI)
  Fold resistance: 0.7 ± 0.2 (3)
[11]; HIV-1 mutant M184V (NRTI)
  Fold resistance: 0.3 ± 0.3 (3)
[11]; HIV-1 mutant N155H+Q148R (INSTI)
  Fold resistance: 1.2 ± 0.7 (3)
[11]; HIV-1 mutant V7A in SP1 (MI)
  Fold resistance: 0.8 ± 0.4 (8)
[11]; HIV-1 mutant V230I in CA (MI)
  Fold resistance: 0.7 ± 0.2 (6)
[11]; HIV-1 mutant Y188L (NNRTI)
  Fold resistance: 0.5 ± 0.1 (3)
[12]
  Kd: 2.5 nM
[13]; HIV-1 CA K70N
  Fold GS-6207 resistance: 24
[13]; HIV-1 CA L56I
  Fold GS-6207 resistance: 239
[13]; HIV-1 CA M66I
  Fold GS-6207 resistance: >3,226
[13]; HIV-1 CA N74D
  Fold GS-6207 resistance: 22
[13]; HIV-1 CA Q67H
  Fold GS-6207 resistance: 6
[13]; HIV-1 CA WT
  Fold GS-6207 resistance: 1
[14]
  hepatic extraction: 0.8%
  predicted rate of hepatic clearance: 0.01 L/h/kg
[15]; 20 mg
  Maximum HIV-1 RNA change through day 9: −0.83 log10 copies ml^−1 and −1.58 log10 copies ml^−1 and −1.74 log10 copies ml^−1 and −1.43 log10 copies ml^−1 and −1.33 log10 copies ml^−1 and −1.21 log10 copies ml^−1
[15]; 50 mg
  Maximum HIV-1 RNA change through day 9: −1.55 log10 copies ml^−1 and −1.61 log10 copies ml^−1 and −2.32 log10 copies ml^−1 and −1.16 log10 copies ml^−1 and −1.73 log10 copies ml^−1 and −2.39 log10 copies ml^−1
[15]; 150 mg
  Maximum HIV-1 RNA change through day 9: −2.06 log10 copies ml^−1 and −1.68 log10 copies ml^−1 and −1.86 log10 copies ml^−1 and −1.49 log10 copies ml^−1 and −1.87 log10 copies ml^−1 and −1.62 log10 copies ml^−1
[15]; 450 mg
  Maximum HIV-1 RNA change through day 9: −2.32 log10 copies ml^−1 and −2.86 log10 copies ml^−1 and −2.11 log10 copies ml^−1 and −1.83 log10 copies ml^−1 and −1.58 log10 copies ml^−1 and −2.52 log10 copies ml^−1
[15]; single 20 mg SC
  mean maximum reduction in plasma HIV-1 RNA through 9 days: 1.35 log10
[15]; single 50 mg SC
  mean maximum reduction in plasma HIV-1 RNA through 9 days: 1.79 log10
[15]; single 150 mg SC
  mean maximum reduction in plasma HIV-1 RNA through 9 days: 1.76 log10
[15]; single 450 mg SC
  mean maximum reduction in plasma HIV-1 RNA through 9 days: 2.20 log10 and 2.2 log10
[16]; [22]
  Any AE: 5 (63) n (%)
  Arthralgia: 0 n (%)
  Constipation: 0 n (%)
  Haemorrhoids: 0 n (%)
  Headache: 1 (13) n (%)
  Injection site erythema: 1 (13) n (%)
  Injection site induration: 0 n (%)
  Injection site nodule: 0 n (%)
  Injection site pain: 0 n (%)
  Nasopharyngitis: 0 n (%)
  Nausea: 2 (25) n (%)
  Oropharyngeal pain: 1 (13) n (%)
  Rash: 1 (13) n (%)
  Serious AE: Atrial fibrillation: 0 n (%)
  Syphilis: 0 n (%)
  Upper respiratory tract infection: 0 n (%)
  Vomiting: 2 (25) n (%)
[16]; [23]
  Any AE: 6 (75) n (%)
  Arthralgia: 0 n (%)
  Constipation: 1 (13) n (%)
  Haemorrhoids: 1 (13) n (%)
  Headache: 0 n (%)
  Injection site erythema: 1 (13) n (%)
  Injection site induration: 1 (13) n (%)
  Injection site nodule: 1 (13) n (%)
  Injection site pain: 4 (50) n (%)
  Nasopharyngitis: 0 n (%)
  Nausea: 1 (13) n (%)
  Oropharyngeal pain: 1 (13) n (%)
  Rash: 1 (13) n (%)
  Serious AE: Atrial fibrillation: 0 n (%)
  Syphilis: 1 (13) n (%)
  Upper respiratory tract infection: 0 n (%)
  Vomiting: 1 (13) n (%)
[16]; single SC 20 to 450 mg, participants with untreated HIV-1 infection
  safety and tolerability: generally safe and well tolerated
[17]
  decrease in phenotypic susceptibility: 1.6 fold
[18]
  rate and extent of in vitro capsid assembly: dose-dependent increase in the rate and extent of in vitro capsid assembly
[19]
  HIV cDNA synthesis (late RT products): did not alter
  formation of 2-LTR circles: significantly reduced
  formation of integrated proviruses: significantly reduced
[20]
  EC50: 0.885 nM
[21]
  Synergy volume: 18 ± 8 μM^2.%
